Here are results for 29 compounds from ChEMBL document CHEMBL1821720, “Discovery and hit-to-lead optimization of novel allosteric glucokinase activators” (Bioorg Med Chem Lett, 2011).

The target in assay [1] is T1, Hexokinase-4 (Homo sapiens) (UniProt P35557).
T1 sequence (whole entry): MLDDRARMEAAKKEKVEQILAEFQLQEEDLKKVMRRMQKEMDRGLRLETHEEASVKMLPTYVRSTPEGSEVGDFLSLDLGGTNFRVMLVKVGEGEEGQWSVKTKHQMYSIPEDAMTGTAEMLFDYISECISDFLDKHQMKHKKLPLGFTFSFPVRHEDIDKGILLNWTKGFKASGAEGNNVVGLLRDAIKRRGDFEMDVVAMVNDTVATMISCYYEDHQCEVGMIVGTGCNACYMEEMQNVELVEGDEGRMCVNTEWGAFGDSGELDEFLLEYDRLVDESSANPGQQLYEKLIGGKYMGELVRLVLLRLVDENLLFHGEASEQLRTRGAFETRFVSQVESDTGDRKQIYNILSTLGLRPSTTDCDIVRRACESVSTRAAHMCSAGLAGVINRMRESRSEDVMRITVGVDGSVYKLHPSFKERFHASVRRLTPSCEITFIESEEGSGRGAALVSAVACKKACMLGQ
The experiment in a line: Activation of human recombinant glucokinase expressed in Escherichia coli coexpressing G6PDH at 10 uM using 5 mM glucose by G6PDH coupled continuous spectrophotometric assay relative to Ro-28-1675.

Assay [2] deals with T1, Hexokinase-4 (Homo sapiens). In words: Activation of human recombinant glucokinase expressed in Escherichia coli coexpressing G6PDH at 10 uM using 5 mM glucose measured as ratio of enzyme activation in compound treated to Ro-28-1675 by G6PDH coupled continuous spectrophotometric assay.
Assay [3] has the same target. The experiment in a line: Activation of human recombinant glucokinase expressed in Escherichia coli coexpressing G6PDH at 10 uM using 5 mM glucose measured as ratio of enzyme activation in treated to untreated control by G6PDH coupled continuous spectrophotometric assay.
Assay [4] has the same target. The experiment in a line: Activation of human recombinant glucokinase expressed in Escherichia coli coexpressing G6PDH at 10 uM using 20 mM glucose measured as ratio of enzyme activation in treated to untreated control by G6PDH coupled continuous spectrophotometric assay.
For assay [5] the target is unchanged. In words: Activation of human recombinant glucokinase expressed in Escherichia coli coexpressing G6PDH at 10 uM using 20 mM glucose measured as ratio of enzyme activation in compound treated to Ro-28-1675 by G6PDH coupled continuous spectrophotometric assay.
The target is the same in assay [6]. In words: Activation of human recombinant glucokinase expressed in Escherichia coli coexpressing G6PDH at 10 uM using 20 mM glucose by G6PDH coupled continuous spectrophotometric assay relative to Ro-28-1675.

For the compound `Cc1sc(-c2ccccc2C(N)=O)cc1C(=O)Nc1nc2c(s1)CCC2`, in assay [1], the Activity was determined as 69%. The Ratio was found to be 0.714 in assay [2], 3.34 in assay [3], 1.8 in assay [4] and 0.713 in assay [5].

Regarding `Cc1cc(C(=O)Nc2nc3c(s2)CCC3)c(C)s1`, the Activity in assay [1] and in assay [6] was 20% each time. Besides, the Ratio turned out to be 0.312 in assay [2], 2.22 in assay [3], 1.37 in assay [4] and 0.231 in assay [5].

Consider `CC(=O)c1ccccc1-c1cc(C(=O)Nc2nc3c(s2)CCC3)c(C)s1`, for which the Activity is 66% in assay [1] and 63% in assay [6]. In addition, the Ratio in assay [2] came to 0.66; in assay [3] it was 3.52; in assay [4] it was 1.71; in assay [5] it was 0.627.

For `Cc1oc(-c2ccccc2S(C)(=O)=O)cc1C(=O)Nc1nc2c(s1)CCC2`, the Ratio in assay [2] came out at 0.504; in assay [3], 2.81; in assay [4], 1.72; in assay [5] it was 0.47.

In the case of `Cc1cc(C(=O)Nc2nc3c(s2)CCCC3)c(C)s1`, the Ratio in assay [2] stood at 0.287; in assay [3] it was 2.12; in assay [4] it was 1.06; in assay [5], 0.038.

With `COCc1cc(C(=O)Nc2nc3c(s2)CCC3)c(C)o1`, the Ratio in assay [2] was determined as 0.212; in assay [3], 1.92; in assay [4], 1.41; in assay [5] it was 0.246.

`O=C(Nc1nc2c(s1)CCCC2)c1cccnc1`: the Ratio in assay [2] is 0.012; in assay [3] it was 1.06; in assay [4], 0.97; in assay [5], -0.015.

As for `CCc1sc(-c2ccccc2C(N)=O)cc1C(=O)Nc1nc2c(s1)CCC2`, the Activity in assay [1] and in assay [6] was 69% throughout. Further, the Ratio is 0.69 in assay [2], 3.7 in assay [3], 1.92 in assay [4] and 0.736 in assay [5].

On to `CCc1sc(-c2ccccc2C(C)=O)cc1C(=O)Nc1nc2c(s1)CCC2`, for which the Ratio in assay [2] came to 0.446; in assay [3] it was 2.46; in assay [4] it was 1.5; in assay [5], 0.446.

Consider `COC(=O)c1ccccc1-c1cc(C(=O)Nc2nc3c(s2)CCC3)c(C)o1`, for which the Ratio in assay [2] came out at 0.098; in assay [3] it was 1.36; in assay [4] it was 1.1; in assay [5], 0.054.

For the compound `Cc1oc(-c2ccccc2C#N)cc1C(=O)Nc1nc2c(s1)CCC2`, the Ratio was found to be 0.067 in assay [2], 1.25 in assay [3], 1.1 in assay [4] and 0.064 in assay [5].

Consider `Cc1cc(C(=O)Nc2nc3c(s2)CCC3(C)C)c(C)o1`, for which the Ratio in assay [2] was 0.001; in assay [3], 1; in assay [4], 0.95; in assay [5], -0.032.

In the case of `O=C(Nc1nc2c(s1)CCCC2)C1CCCO1` (stereo not given), the Ratio came to 0.008 in assay [2], 1.06 in assay [3], 1.03 in assay [4] and 0.014 in assay [5].

On to `COC(=O)CCc1cc(C(=O)Nc2nc3c(s2)CCC3)c(C)o1`, for which the Ratio in assay [2] was determined as 0.151; in assay [3] it was 1.56; in assay [4] it was 1.23; in assay [5], 0.154.

Turning to `Cc1oc(-c2ccccc2C(=O)N(C)C)cc1C(=O)Nc1nc2c(s1)CCC2`, the Ratio was -0.011 in assay [2], 0.96 in assay [3], 0.96 in assay [4] and -0.026 in assay [5].

Consider `O=C(Nc1nc(C2CCCCC2)cs1)c1ccccc1`, for which the Ratio was found to be 0.049 in assay [2], 1.35 in assay [3], 1.06 in assay [4] and 0.029 in assay [5].

Turning to `CC(=O)c1ccccc1-c1cc(C(=O)Nc2nc3c(s2)CCC3)cs1`, the Ratio was determined as 0.274 in assay [2], 2.02 in assay [3], 1.45 in assay [4] and 0.296 in assay [5].

In the case of `CC(=O)c1ccccc1-c1cc(C(=O)Nc2nc3c(s2)CCCC3)c(C)s1`, the Ratio in assay [2] is 0.554; in assay [3], 3.17; in assay [4] it was 1.49; in assay [5], 0.392.

As to `Cc1cc(C(=O)Nc2nc3c(s2)CCCC3)c(C)o1`, the Ratio in assay [2] is 0.215; in assay [3] it was 1.99; in assay [4], 1.14; in assay [5], 0.072.

Regarding `CCc1oc(-c2ccccc2C(C)=O)cc1C(=O)Nc1nc2c(s1)CCC2`, the Ratio came out at 0.193 in assay [2], 1.64 in assay [3], 1.41 in assay [4] and 0.361 in assay [5].

With `Cc1oc(-c2ccccc2[N+](=O)[O-])cc1C(=O)Nc1nc2c(s1)CCC2`, the Ratio stood at 0.244 in assay [2], 1.89 in assay [3], 1.46 in assay [4] and 0.267 in assay [5].

With `Cc1cc(C(=O)Nc2nc3c(s2)CCC3)c(C)o1`, the Activity in assay [1] and in assay [6] was 20% each time. Moreover, the Ratio came to 0.219 in assay [2], 1.88 in assay [3], 1.42 in assay [4] and 0.247 in assay [5].

For `COC(=O)c1ccc(NC(=O)c2cc(C)oc2C)nc1`, the Ratio in assay [2] worked out at 0.076; in assay [3], 1.33; in assay [4], 1.19; in assay [5], 0.114.

`Cc1oc(-c2ccccc2C(=O)O)cc1C(=O)Nc1nc2c(s1)CCC2`: the Ratio in assay [2] is -0.023; in assay [3] it was 0.92; in assay [4], 0.94; in assay [5], -0.034.

As to `COCCCc1cc(C(=O)Nc2nc3c(s2)CCC3)c(C)o1`, the Ratio was determined as 0.282 in assay [2], 1.98 in assay [3], 1.51 in assay [4] and 0.331 in assay [5].

On to `CC(=O)c1cccc(-c2cc(C(=O)Nc3nc4c(s3)CCC4)c(C)o2)c1`, for which the Ratio in assay [2] was 0; in assay [3] it was 1; in assay [4] it was 0.93; in assay [5], -0.039.

Regarding `Cc1cc(C(=O)Nc2nc3c(s2)CCCC3)no1`, the Ratio in assay [2] is 0.022; in assay [3], 1.11; in assay [4], 1.06; in assay [5], 0.036.

In the case of `Cc1oc(-c2cccc(C#N)c2)cc1C(=O)Nc1nc2c(s1)CCC2`, the Ratio was -0.002 in assay [2], 0.99 in assay [3], 0.85 in assay [4] and -0.09 in assay [5].

Turning to `CC(=O)CCc1cc(C(=O)Nc2nc3c(s2)CCC3)c(C)o1`, the Ratio in assay [2] was 0.29; in assay [3], 2.07; in assay [4] it was 1.44; in assay [5], 0.287.
